Experiments:
Assay in all cases: Test D pre-/postemergence plant response
Assay type in all cases: in vivo
[1] = tested on: prickly sida (Sida spinosa)
Excerpt: (§1) Seeds of plant species selected from bermudagrass (Cynodon dactylon), Surinam grass (Brachiaria decumbens), large crabgrass (Digitaria sanguinalis), green foxtail (Setaria viridis), goosegrass (Eleusine indica), johnsongrass (Sorghum halepense), kochia (Kochia scoparia), morningglory (pitted morningglory, Ipomoea lacunosa), nutsedge (purple nutsedge, Cyperus rotundus), ragweed (common ragweed, Ambrosia elatior), black mustard (Brassica nigra), guineagrass (Panicum maximum), dallisgrass (Paspalum dilatatum), barnyardgrass (Echinochloa crus-galli), sandbur (southern sandbur, Cenchrus echinatus), sowthistle (common sowthistle, Sonchus oleraceous), prickly sida (Sida spinosa), Italian ryegrass (Lolium multiflorum), purslane (common purslane, Portulaca oleracea), signalgrass (broadleaf signalgrass, Brachiaria platyphylla), groundsel (common groundsel, Senecio vulgaris), chickweed (common chickweed, Stellaria media), dayflower (Virginia (VA) dayflower, Commelina virginica), bluegrass (annual bluegrass, Poa annua), naked crabgrass (Digitaria nuda), itchgrass (Rottboellia cochinchinensis), quackgrass (Elytrigia repens), field bindweed (Convolvulus arvensis), spanishneedles (Bidens bipinnata), mallow (common mallow, Malva sylvestris) and Russian thistle (Salsola kali), were planted into a blend of loam soil and sand and treated preemergence with test chemicals formulated in a non-phytotoxic solvent mixture which included a surfactant. At the same time, plants from these weed species were treated with postemergence applications of the test chemicals formulated in the same manner. Plants ranged in height from 2 to 18 cm (1- to 4-leaf stage) for postemergence treatments.
(§2) Treated plants and controls were maintained in a greenhouse for 14 to 21 days, after which time all species were visually evaluated and compared to controls. Plant response ratings, summarized in Table D, are based on a scale of 0 to 100 where 0 is no effect and 100 is complete control. A dash (-) response means no test result.

[2] = tested on: morningglory (pitted morningglory, Ipomoea lacunosa)
Excerpt: as §1, §2

[3] = tested on: purslane (common purslane, Portulaca oleracea)
Excerpt: as §1, §2

[4] = tested on: spanishneedles (Bidens bipinnata)
Excerpt: as §1, §2

[5] = tested on: Russian thistle (Salsola kali); details: Preemergence, 16 g ai/ha; scale 0 to 100, 0 no effect, 100 complete control
Excerpt: as §1, §2

[6] = tested on: green foxtail (Setaria viridis)
Excerpt: as §1, §2

[7] = tested on: bermudagrass (Cynodon dactylon)
Excerpt: as §1, §2

[8] = tested on: kochia (Kochia scoparia)
Excerpt: as §1, §2

[9] = tested on: sowthistle (common sowthistle, Sonchus oleraceous)
Excerpt: as §1, §2

[10] = tested on: groundsel (common groundsel, Senecio vulgaris); details: Postemergence
Excerpt: as §1, §2

[11] = tested on: johnsongrass (Sorghum halepense)
Excerpt: as §1, §2

[12] = tested on: chickweed (common chickweed, Stellaria media)
Excerpt: as §1, §2

[13] = tested on: black mustard (Brassica nigra)
Excerpt: as §1, §2

[14] = tested on: field bindweed (Convolvulus arvensis)
Excerpt: as §1, §2

[15] = tested on: nutsedge (purple nutsedge, Cyperus rotundus)
Excerpt: as §1, §2

[16] = tested on: mallow (common mallow, Malva sylvestris); details: Postemergence
Excerpt: as §1, §2

[17] = tested on: goosegrass (Eleusine indica)
Excerpt: as §1, §2

[18] = Postemergence, 16 g ai/ha, scale 0 to 100
[19] = Postemergence, 31 g ai/ha, scale 0 to 100
[20] = Postemergence, 125 g ai/ha, scale 0 to 100 (0 no effect, 100 complete control)
[21] = Postemergence, 62 g ai/ha, scale 0 to 100 (0 no effect, 100 complete control)
[22] = Preemergence, 16 g ai/ha, scale 0 to 100, 0 no effect, 100 complete control
[23] = Preemergence, 31 g ai/ha, scale 0 to 100 (0 no effect, 100 complete control)
[24] = Preemergence, 62 g ai/ha, scale 0 to 100
[25] = Preemergence, 125 g ai/ha, scale 0 to 100
[26] = Postemergence, 31 g ai/ha, scale 0 to 100 (0 no effect, 100 complete control)
[27] = 125 g ai/ha, scale 0 to 100 (0 no effect, 100 complete control)
[28] = 62 g ai/ha, scale 0 to 100 (0 no effect, 100 complete control)

`Cc1ccc(Cl)cc1-n1c(-c2ccccc2)ncc(C(=O)C2=C(O)CCCC2=O)c1=O` [Compound 52] was tested, and the “Plant response rating, Prickly Sida” value [1, 18] was 65, the “Plant response rating, Prickly Sida” value [1, 19] was 65 and the “Plant response rating, Prickly Sida” value [1, 20] was 90. The “Plant response rating, Prickly Sida” value [1, 21] was 80, the “Plant response rating, Prickly Sida” value [1, 22] was 0 and the “Plant response rating, Prickly Sida” value [1, 23] was 0. The “Plant response rating, Prickly Sida” value [1, 24] was 50, the “Plant response rating, Prickly Sida” value [1, 25] was 100 and the “Plant response rating, Morningglory” value [2, 18] was 50. For the same molecule, the “Plant response rating, Morningglory” value [2, 19] was 65, the “Plant response rating, Morningglory” value [2, 20] was 70 and the “Plant response rating, Morningglory” value [2, 21] was 70. For the same molecule, the “Plant response rating, Morningglory” value [2, 22] was 0, the “Plant response rating, Morningglory” value [2, 23] was 0 and the “Plant response rating, Morningglory” value [2, 24] was 0. The “Plant response rating, Morningglory” value [2, 25] was 100, the “Plant response rating, Purslane” value [3, 18] was 65 and the “Plant response rating, Purslane” value [3, 19] was 65. The “Plant response rating, Purslane” value [3, 20] was 75, the “Plant response rating, Purslane” value [3, 21] was 65 and the “Plant response rating, Purslane” value [3, 22] was 0. For the same molecule, the “Plant response rating, Purslane” value [3, 23] was 60, the “Plant response rating, Purslane” value [3, 24] was 90 and the “Plant response rating, Purslane” value [3, 25] was 100. For the same molecule, the “Plant response rating, Spanishneedles” value [4, 18] was 75, the “Plant response rating, Spanishneedles” value [4, 19] was 75 and the “Plant response rating, Spanishneedles” value [4, 20] was 80. The “Plant response rating, Spanishneedles” value [4, 21] was 80, the “Plant response rating, Spanishneedles” value [4, 22] was 35 and the “Plant response rating, Spanishneedles” value [4, 23] was 70. The “Plant response rating, Spanishneedles” value [4, 25] was 98, the “Plant response rating, Russian Thistle” value [5] was 0 and the “Plant response rating, Foxtail, Green” value [6, 18] was 70. The “Plant response rating, Foxtail, Green” value [6, 19] was 70, the “Plant response rating, Foxtail, Green” value [6, 20] was 95 and the “Plant response rating, Foxtail, Green” value [6, 21] was 85. The “Plant response rating, Foxtail, Green” value [6, 22] was 0, the “Plant response rating, Foxtail, Green” value [6, 23] was 0 and the “Plant response rating, Foxtail, Green” value [6, 24] was 0. For the same molecule, the “Plant response rating, Foxtail, Green” value [6, 25] was 15, the “Plant response rating, Bermudagrass” value [7, 18] was 75 and the “Plant response rating, Bermudagrass” value [7, 26] was 75. For the same molecule, the “Plant response rating, Bermudagrass” value [7, 20] was 80, the “Plant response rating, Bermudagrass” value [7, 21] was 75 and the “Plant response rating, Bermudagrass” value [7, 22] was 30. For the same molecule, the “Plant response rating, Bermudagrass” value [7, 23] was 70, the “Plant response rating, Bermudagrass” value [7, 24] was 90 and the “Plant response rating, Bermudagrass” value [7, 25] was 100. The “Plant response rating, Kochia” value [8, 18] was 0, the “Plant response rating, Kochia” value [8, 19] was 0 and the “Plant response rating, Kochia” value [8, 20] was 40. For the same molecule, the “Plant response rating, Kochia” value [8, 21] was 0, the “Plant response rating, Kochia” value [8, 23] was 25 and the “Plant response rating, Kochia” value [8, 24] was 25. The “Plant response rating, Kochia” value [8, 25] was 35, the “Plant response rating, Sowthistle” value [9, 18] was 80 and the “Plant response rating, Sowthistle” value [9, 19] was 95. For the same molecule, the “Plant response rating, Sowthistle” value [9, 20] was 100, the “Plant response rating, Sowthistle” value [9, 21] was 98 and the “Plant response rating, Sowthistle” value [9, 22] was 0. For the same molecule, the “Plant response rating, Sowthistle” value [9, 23] was 80, the “Plant response rating, Sowthistle” value [9, 25] was 100 and the “Plant response rating, Groundsel” value ([10]; 16 g ai/ha, scale 0 to 100) was 100. The “Plant response rating, Groundsel” value ([10]; 31 g ai/ha, scale 0 to 100) was 100, the “Plant response rating, Groundsel” value [10, 27] was 100 and the “Plant response rating, Groundsel” value [10, 28] was 100. For the same molecule, the “Plant response rating, Johnsongrass” value [11, 18] was 65, the “Plant response rating, Johnsongrass” value [11, 19] was 75 and the “Plant response rating, Johnsongrass” value [11, 21] was 85. The “Plant response rating, Johnsongrass” value [11, 22] was 0, the “Plant response rating, Johnsongrass” value [11, 23] was 0 and the “Plant response rating, Johnsongrass” value [11, 24] was 75. For the same molecule, the “Plant response rating, Johnsongrass” value [11, 25] was 95, the “Plant response rating, Chickweed” value [12, 18] was 75 and the “Plant response rating, Chickweed” value [12, 19] was 90. For the same molecule, the “Plant response rating, Chickweed” value [12, 20] was 100, the “Plant response rating, Chickweed” value [12, 21] was 98 and the “Plant response rating, Chickweed” value [12, 25] was 95. For the same molecule, the “Plant response rating, Black Mustard” value [13, 18] was 65, the “Plant response rating, Black Mustard” value [13, 26] was 90 and the “Plant response rating, Black Mustard” value [13, 20] was 98. For the same molecule, the “Plant response rating, Black Mustard” value [13, 21] was 98, the “Plant response rating, Black Mustard” value [13, 22] was 0 and the “Plant response rating, Black Mustard” value [13, 23] was 20. The “Plant response rating, Black Mustard” value [13, 24] was 80, the “Plant response rating, Black Mustard” value [13, 25] was 100 and the “Plant response rating, Field Bindweed” value [14, 18] was 50. The “Plant response rating, Field Bindweed” value [14, 19] was 70, the “Plant response rating, Field Bindweed” value [14, 20] was 70 and the “Plant response rating, Field Bindweed” value [14, 21] was 70. For the same molecule, the “Plant response rating, Field Bindweed” value [14, 22] was 20, the “Plant response rating, Field Bindweed” value [14, 24] was 20 and the “Plant response rating, Field Bindweed” value [14, 25] was 50. For the same molecule, the “Plant response rating, Nutsedge, Purple” value [15, 18] was 0, the “Plant response rating, Nutsedge, Purple” value [15, 19] was 20 and the “Plant response rating, Nutsedge, Purple” value [15, 20] was 40. The “Plant response rating, Nutsedge, Purple” value [15, 21] was 35, the “Plant response rating, Nutsedge, Purple” value [15, 22] was 0 and the “Plant response rating, Nutsedge, Purple” value [15, 23] was 5. For the same molecule, the “Plant response rating, Nutsedge, Purple” value [15, 24] was 30, the “Plant response rating, Nutsedge, Purple” value [15, 25] was 40 and the “Plant response rating, Mallow” value ([16]; 16 g ai/ha, scale 0 to 100) was 50. The “Plant response rating, Mallow” value ([16]; 31 g ai/ha, scale 0 to 100) was 65, the “Plant response rating, Mallow” value [16, 27] was 75 and the “Plant response rating, Mallow” value [16, 28] was 65. For the same molecule, the “Plant response rating, Goosegrass” value [17, 18] was 65, the “Plant response rating, Goosegrass” value [17, 19] was 75 and the “Plant response rating, Goosegrass” value [17, 20] was 80. The “Plant response rating, Goosegrass” value [17, 21] was 75, the “Plant response rating, Goosegrass” value [17, 22] was 5 and the “Plant response rating, Goosegrass” value [17, 23] was 60. For the same molecule, the “Plant response rating, Goosegrass” value [17, 24] was 80 and the “Plant response rating, Goosegrass” value [17, 25] was 98.
